# Earlier results, collected in patent publication US10399920B2, “Crystalline form of cannabidiol” (S&B Pharma, Inc., priority 2016, dated 2019).
# Tested on: epilepsy
# Conditions: animal studies; dosed at 50 and 100 mg/kg intra-peritoneally; Cannabidiol prepared by non-synthetic methods
smiles,measurement,value
C=C(C)[C@@H]1CCC(C)=C[C@H]1c1c(O)cc(CCCCC)cc1O [Cannabidiol],reducing mortality,effective in reducing mortality
